Data: the supplement of paper PMC10307832

How the values were obtained:
Test in all cases: relative viability (nuclei count vs DMSO), 5 days (fraction); higher = more cells survive
Tozasertib + Linsitinib = compound: Cc1cc(Nc2cc(N3CCN(C)CC3)nc(Sc3ccc(NC(=O)C4CC4)cc3)n2)n[nH]1 [Tozasertib] + C[C@]1(O)C[C@@H](c2nc(-c3ccc4ccc(-c5ccccc5)nc4c3)c3c(N)nccn32)C1 [Linsitinib] (partner 1 µM)
Method in brief: (§1)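 Lung cancer cell lines were seeded in 1536-well plates and dosed by pin tool the next day, with either a single drug or a fixed anchor-drug dose combined with five library-drug doses (not always all listed) spaced in √10 steps. Five days later, one step fixed the cells and stained their nuclei (final 0.05% Triton X-100, 1% formaldehyde, 1 ug/ml Hoechst), and nuclei were counted on 4× images. Relative viability is the nuclei count in treated wells divided by the count in vehicle wells, and each value is the median of duplicate plates.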

Tozasertib + Pictilisib = compound: Cc1cc(Nc2cc(N3CCN(C)CC3)nc(Sc3ccc(NC(=O)C4CC4)cc3)n2)n[nH]1 [Tozasertib] + CS(=O)(=O)N1CCN(Cc2cc3nc(-c4cccc5[nH]ncc45)nc(N4CCOCC4)c3s2)CC1 [Pictilisib] (partner 1 µM)
Method in brief: as §1

Tozasertib + Foretinib = compound: Cc1cc(Nc2cc(N3CCN(C)CC3)nc(Sc3ccc(NC(=O)C4CC4)cc3)n2)n[nH]1 [Tozasertib] + COc1cc2c(Oc3ccc(NC(=O)C4(C(=O)Nc5ccc(F)cc5)CC4)cc3F)ccnc2cc1OCCCN1CCOCC1 [Foretinib] (partner 0.25 µM)
Method in brief: as §1

Tozasertib + Olaparib = compound: Cc1cc(Nc2cc(N3CCN(C)CC3)nc(Sc3ccc(NC(=O)C4CC4)cc3)n2)n[nH]1 [Tozasertib] + O=C(c1cc(Cc2n[nH]c(=O)c3ccccc23)ccc1F)N1CCN(C(=O)C2CC2)CC1 [Olaparib] (partner 8 µM)
Method in brief: as §1

Tozasertib + Crizotinib = compound: Cc1cc(Nc2cc(N3CCN(C)CC3)nc(Sc3ccc(NC(=O)C4CC4)cc3)n2)n[nH]1 [Tozasertib] + C[C@@H](Oc1cc(-c2cnn(C3CCNCC3)c2)cnc1N)c1c(Cl)ccc(F)c1Cl [Crizotinib] (partner 1 µM)
Method in brief: as §1

Cell Line | relative viability (Tozasertib + Linsitinib; first compound 0.004 µM) | relative viability (Tozasertib + Linsitinib; first compound 0.01265 µM) | relative viability (Tozasertib + Linsitinib; first compound 0.04 µM) | relative viability (Tozasertib + Linsitinib; first compound 0.1265 µM) | relative viability (Tozasertib + Pictilisib; first compound 0.004 µM) | relative viability (Tozasertib + Pictilisib; first compound 0.01265 µM) | relative viability (Tozasertib + Pictilisib; first compound 0.04 µM) | relative viability (Tozasertib + Pictilisib; first compound 0.1265 µM) | relative viability (Tozasertib + Foretinib; first compound 0.004 µM) | relative viability (Tozasertib + Foretinib; first compound 0.01265 µM) | relative viability (Tozasertib + Foretinib; first compound 0.04 µM) | relative viability (Tozasertib + Foretinib; first compound 0.1265 µM) | relative viability (Tozasertib + Olaparib; first compound 0.004 µM) | relative viability (Tozasertib + Olaparib; first compound 0.01265 µM) | relative viability (Tozasertib + Olaparib; first compound 0.04 µM) | relative viability (Tozasertib + Olaparib; first compound 0.1265 µM) | relative viability (Tozasertib + Crizotinib; first compound 0.004 µM) | relative viability (Tozasertib + Crizotinib; first compound 0.01265 µM) | relative viability (Tozasertib + Crizotinib; first compound 0.04 µM) | relative viability (Tozasertib + Crizotinib; first compound 0.1265 µM)
201T | 1.02 | 0.955 | 1.08 | 1.04 | 0.716 | 0.581 | 0.709 | 0.537 | 1.09 | 1.04 | 1.28 | 1.09 | 0.846 | 0.838 | 0.849 | 0.814 | 1.02 | 1.05 | 1.06 | 1.01
A549 | 0.461 | 0.511 | 0.71 | 0.33 | 0.529 | 0.463 | 0.517 | 0.0954 |  | 0.823 | 0.871 | 0.251 | 0.2 | 0.324 | 0.313 | 0.13 | 0.839 | 0.745 | 0.393 | 0.0848
A-427 | 1.16 | 0.996 | 1.12 | 0.826 | 0.676 | 0.585 | 0.814 | 0.168 | 1.03 | 0.935 | 1 | 0.594 | 0.769 | 0.645 | 0.734 | 0.47 | 0.882 | 0.985 | 0.788 | 0.469
ABC-1 | 0.831 |  | 0.554 | 0.767 | 0.782 |  | 0.625 | 0.291 | 0.988 | 1.27 | 0.838 | 0.381 | 0.832 | 0.704 | 0.394 | 0.613 | 1.21 | 0.992 | 0.565 | 0.249
BEN | 1.08 | 0.948 | 0.927 | 0.85 | 0.56 | 0.575 | 0.66 | 0.456 | 1.02 | 0.463 | 0.678 | 0.493 |  | 1.09 | 0.931 | 0.956 | 0.91 | 0.921 | 0.907 | 0.727
CAL-12T | 0.857 | 0.804 | 0.793 | 0.64 | 0.472 | 0.386 | 0.414 | 0.171 | 1.19 | 1.04 | 1.11 | 1.11 |  | 0.741 | 0.769 | 0.55 | 0.823 | 0.635 | 0.454 | 0.325
COR-L23 | 0.99 | 0.906 | 0.846 | 0.39 | 0.724 | 0.756 | 0.783 | 0.397 | 0.998 | 0.847 | 0.783 | 0.523 | 0.375 | 0.378 | 0.3 | 0.299 | 0.695 | 0.667 | 0.453 | 0.412
COR-L 105 | 1.15 | 1.15 | 1.02 | 0.868 | 0.434 | 0.511 | 0.412 | 0.267 | 1.03 | 0.993 | 1 | 0.803 | 0.681 | 0.725 | 0.716 | 0.754 |  | 0.765 | 0.771 | 0.458
